One block for each molecule: values may come before it. Peptide text beside a SMILES is read from it.
How the values were obtained:
[1] = tested on: post-infusion PBMC samples
HLA-A*02:01 = HLA-A*02:01 (Homo sapiens, UniProt P04439, D140Y/D185E/D98H/E176V/E277Q/G131W/G231S/I119V/I121R/I166T/I218V/L300P/L318F/N151K/N90K/P208A/P217A/Q86G/Q94H/R138H/R169H/T345S); test: REVEAL Epitope Discovery System in vitro MHC-peptide binding score; conditions: for A*02:01 In Vitro Score: REVEAL score, positive control peptide set at 100%, greater than 50 = good or high affinity binding; for predicted or actual binding affinity or score for HLA class I: for at least one HLA allele (A*02:01, A*03:01, A*11:01, B*08:01) and/or at least one peptide, in silico or in vitro
Protocol: (§1) Actual binding affinities for certain HLA class I alleles (A*02:01, A*03:01. A*11:01, and B*08:01) were assessed in vitro for exemplary overlapping 9 amino acid peptide sequences within a portion of the 26 amino acid junction region spanning the CD28 and 4-1BB junction. Specifically, assessment was of a series of overlapping 9-mer peptides derived from the sequence […] (set forth in SEQ ID NO: 7), which contains a portion of the CD28 transmembrane domain and 4-1BB costimulatory domain spanning the junction between the domains (bond joining the two amino acids noted in underline). In addition, a series of overlapping 9-mer peptides of each of a number of different variants of this portion also were assessed, each variant containing a mutation or mutations in this region as described in Example 2.
(§2) The various 9-mer overlapping peptides were synthesized and their purity tested by MALDI-TOF Mass Spectrometry. The synthetic peptides were then incubated with recombinant MHC molecules to assess binding properties using the REVEAL Epitope Discovery System, which is a high-throughput binding assay that measures the degree to which each peptide is able to stabilize a ternary MHC-peptide complex (ProImmune, Oxford, United Kingdom). Each peptide was separately tested for this ability with respect to each of the HLA class I alleles, normalized to the degree observed for a positive control (known T cell epitope for the relevant allele). The results are reported as a score, in which the binding was normalized to the positive control peptide set at 100%.

HLA-A*03:01 = HLA-A*03:01 (Homo sapiens, UniProt P04439); test: as above; conditions: positive control peptide set at 100%, greater than 50 = good or high affinity binding
Protocol: as §1, §2

HLA-B*08:01 = HLA-B*08:01 (Homo sapiens, UniProt P01889, A93T/A95T/D138N/E176V/E187T/K202T/Q94N/R180D/S35A/V36M/Y33D/Y91F); test: as above; set-up: key: % binding, normalized to positive control peptide set at 100%; conditions: binding normalized to positive control peptide set at 100%, greater than 50 considered good or high affinity binding
Protocol: as §1, §2

HLA-A*11:01 = HLA-A*11:01 (Homo sapiens, UniProt P04439, A114D/D185E/E176A/F33Y/L180Q/S129P/T187R); test: as above; set-up: key: % binding, normalized to positive control peptide set at 100%; conditions: binding normalized to positive control peptide set at 100%, greater than 50 considered good or high affinity binding
Protocol: as §1, §2

[2] = tested on: intracellular IL-2 and IFN-γ; test: Intracellular cytokine expression after co-culture with K562-CD19; type: cell-based, human; conditions: versus unmodified CAR; for percentage of cells with IFN-γ cytokine expression: CD8+/CAR+ T cells after antigen stimulation; for percentage of cells with intracellular expression of IL-2: CD4+/CAR+ and CD8+/CAR+ T cells after antigen stimulation
Protocol: The production of cytokines by the anti-CD19 CAR T cells, expressing CARs containing either the native junction region or the various modified junction regions, was assessed. Engineered T cells were co-cultured with irradiated CD19-transduced K562 target cells (K562-CD19) or parental K562 cells not expressing the CD19 antigen in the presence of Golgi inhibitor. After stimulation, the cells were then fixed, permeabilized and intracellular IL-2 and IFN-γ cytokine levels were assessed by flow cytometry in CD4+/CAR+ cells and CD8+/CAR+ cells

Molecule: CC[C@H](C)[C@H](NC(=O)[C@H](Cc1ccccc1)NC(=O)[C@H](C)N)C(=O)N[C@H](C(=O)N[C@@H](Cc1ccccc1)C(=O)N[C@@H](Cc1c[nH]c2ccccc12)C(=O)N[C@H](C(=O)N[C@@H](CCCCN)C(=O)N[C@@H](CCCNC(=N)N)C(=O)NCC(=O)N[C@@H](CCCNC(=N)N)C(=O)N[C@@H](CCCCN)C(=O)N[C@@H](CCCCN)C(=O)N[C@@H](CC(C)C)C(=O)N[C@@H](CC(C)C)C(=O)O)C(C)C)[C@@H](C)CC (H-AFIIFWVKRGRKKLL-OH; N-terminus and C-terminus assumed)
- specific immune response (ELISpot) [1]: specific immune responses also were detected

Molecule: CC[C@H](C)[C@H](NC(=O)[C@H](Cc1ccc(O)cc1)NC(=O)[C@H](CC(C)C)NC(=O)[C@H](CC(C)C)NC(=O)[C@H](CCCCN)NC(=O)[C@H](CCCCN)NC(=O)[C@H](CCCNC(=N)N)NC(=O)CNC(=O)[C@H](CCCNC(=N)N)NC(=O)[C@H](CCCCN)NC(=O)[C@@H](NC(=O)[C@H](Cc1c[nH]c2ccccc12)NC(=O)[C@@H](N)Cc1ccccc1)C(C)C)C(=O)N[C@@H](Cc1ccccc1)C(=O)N[C@@H](CCCCN)C(=O)O (H-FWVKRGRKKLLYIFK-OH; N-terminus and C-terminus assumed)
- specific immune response (ELISpot) [1]: specific immune responses also were detected

- A*02:01 In Vitro Score (HLA-A*02:01): 2.60
- A*03:01 In Vitro (HLA-A*03:01): 25.30
- B*08:01 In Vitro Score (HLA-B*08:01): 0.00
- A*11:01 In Vitro Score (HLA-A*11:01): 68.90
Molecule: IIFWVSRGR [9-mer variant junction peptide, K28S]

- A*02:01 In Vitro Score (HLA-A*02:01): 82.20
- A*03:01 In Vitro (HLA-A*03:01): 15.90
- B*08:01 In Vitro Score (HLA-B*08:01): 1.70
- A*11:01 In Vitro Score (HLA-A*11:01): 32.40
Molecule: IIFWVKRGL [9-mer variant junction peptide, R31L]

B1: R31H: variant anti-CD19 CAR / junction region with R31H, numbering SEQ ID NO:5 (protein)
chain: FWVLVVVGGVLACYSLLVTVAFIIFWVKRGHKKLLYIFKQPFMRPVQTTQEEDGCSCRFPEEEEGGCEL
modifications: CD28-4-1BB
- predicted or actual binding affinity or score for HLA class I (HLA-A*02:01): reduced predicted or actual binding affinity or score
- percentage of cells with IFN-γ cytokine expression [2]: increased IFN-γ cytokine expression

B2: L34A: variant anti-CD19 CAR / junction region with L34A, numbering SEQ ID NO:5 (protein)
chain: FWVLVVVGGVLACYSLLVTVAFIIFWVKRGRKKALYIFKQPFMRPVQTTQEEDGCSCRFPEEEEGGCEL
modifications: CD28-4-1BB
- predicted or actual binding affinity or score for HLA class I (HLA-A*02:01): reduced predicted or actual binding affinity or score
- percentage of cells with intracellular expression of IL-2 [2]: greater percentage
- percentage of cells with IFN-γ cytokine expression [2]: increased IFN-γ cytokine expression

B3: L34S: variant anti-CD19 CAR / junction region with L34S, numbering SEQ ID NO:5 (protein)
chain: FWVLVVVGGVLACYSLLVTVAFIIFWVKRGRKKSLYIFKQPFMRPVQTTQEEDGCSCRFPEEEEGGCEL
modifications: CD28-4-1BB
- predicted or actual binding affinity or score for HLA class I (HLA-A*02:01): reduced predicted or actual binding affinity or score
- percentage of cells with intracellular expression of IL-2 [2]: greater percentage
